Experimental data reported in PubChem BioAssay (NCI).
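Interpolation was linear, between the two tested concentrations surrounding the appropriate level; five concentrations were tested over 48 hours in 96-well plates. GI50 is the concentration that inhibits growth by half. Definition used: TGI = concentration required for complete inhibition of growth.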

Tests used:
Assay in all cases: NCI anticancer screen, dose series, 48 h; in the data active = GI50 below about 0.43 µM; inactive = the rest
[1] = test system: MDA-MB-231 breast
[2] = test system: SK-MEL-5 melanoma
[3] = test system: SNB-75 CNS
[4] = test system: ACHN renal
[5] = test system: NCI-H522 lung
[6] = test system: HCT-15 colon
[7] = test system: K-562 leukemia
[8] = test system: PC-3 prostate
[9] = test system: SN12C renal
[10] = test system: A498 renal
[11] = test system: HCC-2998 colon
[12] = test system: MDA-MB-435
[13] = test system: OVCAR-3 ovarian
[14] = test system: M14 melanoma
[15] = test system: HL-60(TB) leukemia
[16] = test system: A549 NSCLC
[17] = test system: SF-295 CNS
[18] = test system: EKVX NSCLC
[19] = test system: TK-10 renal
[20] = test system: RXF 393 renal
[21] = test system: OVCAR-4 ovarian
[22] = test system: MALME-3M melanoma
[23] = test system: HOP-92 NSCLC
[24] = test system: OVCAR-8 ovarian
[25] = test system: CAKI-1 renal
[26] = test system: DU-145 prostate
[27] = test system: UO-31 renal
[28] = test system: SK-OV-3 ovarian
[29] = test system: UACC-62 melanoma
[30] = test system: MCF7 breast
[31] = test system: CCRF-CEM leukemia
[32] = test system: SK-MEL-2 melanoma
[33] = test system: KM12 colon
[34] = test system: IGROV1 ovarian
[35] = test system: SF-539 CNS
[36] = test system: T-47D breast
[37] = test system: MOLT-4 leukemia
[38] = test system: NCI-H460 lung
[39] = test system: HS 578T breast
[40] = test system: OVCAR-5 ovarian
[41] = test system: UACC-257 melanoma
[42] = test system: BT-549 breast
[43] = test system: NCI-H226 lung
[44] = test system: U251 CNS
[45] = test system: 786-0 renal
[46] = test system: SR leukemia
[47] = test system: SF-268 CNS
[48] = test system: NCI-H23 lung
[49] = test system: HT29 colon
[50] = test system: SK-MEL-28 melanoma
[51] = test system: HOP-62 NSCLC
[52] = test system: NCI/ADR-RES ovarian
[53] = test system: COLO 205 colon
[54] = test system: LOX IMVI melanoma
[55] = test system: SNB-19 CNS
[56] = test system: HCT-116 colon
[57] = test system: RPMI-8226 leukemia
[58] = test system: SW-620 colon

COc1ccc(CNc2c3ccccc3nc3ccccc23)cc1OC
25.2 µM: TGI [7]
6.61 µM: TGI [52]
6.33 µM: TGI [25]
8.44 µM: TGI [19]
7.83 µM: TGI [23]
6.55 µM: TGI [34]
10.1 µM: TGI [39] | TGI [58]
7.99 µM: TGI [21]
7.47 µM: TGI [48]
10.8 µM: TGI [50]
7.32 µM: TGI [1]
7.17 µM: TGI [6]
5.59 µM: TGI [57]
4.98 µM: TGI [22]
inactive: GI50 [1] 2.37 µM | GI50 [2] 1.87 µM | GI50 [3] 2.39 µM | GI50 [4] 1.39 µM | GI50 [5] 1.55 µM | GI50 [6] 2.2 µM | GI50 [7] 2.34 µM | GI50 [8] 2.58 µM | GI50 [9] 2.36 µM | GI50 [10] 1.97 µM | GI50 [11] 2.28 µM | GI50 [12] 2.93 µM | GI50 [13] 2.64 µM | GI50 [14] 1.97 µM | GI50 [15] 2.96 µM | GI50 [16] 2.24 µM | GI50 [17] 2.19 µM | GI50 [18] 2.7 µM | GI50 [19] 2.34 µM | GI50 [20] 1.49 µM | GI50 [21] 2.39 µM | GI50 [22] 1.95 µM | GI50 [23] 1.62 µM | GI50 [24] 2.17 µM | GI50 [25] 1.87 µM | GI50 [26] 2.8 µM | GI50 [27] 1.17 µM | GI50 [28] 2.44 µM | GI50 [29] 2.42 µM | GI50 [30] 2.24 µM | GI50 [31] 2.82 µM | GI50 [32] 2.28 µM | GI50 [33] 3.65 µM | GI50 [34] 2.3 µM | GI50 [35] 2.82 µM | GI50 [36] 3.43 µM | GI50 [37] 2.25 µM | GI50 [38] 2.49 µM | GI50 [39] 2.64 µM | GI50 [40] 2.56 µM | GI50 [41] 2.73 µM | GI50 [42] 3.15 µM | GI50 [43] 2.25 µM | GI50 [44] 2.98 µM | GI50 [45] 2.78 µM | GI50 [46] 1.34 µM | GI50 [47] 3.21 µM | GI50 [48] 2.13 µM | GI50 [49] 1.71 µM | GI50 [50] 3.14 µM | GI50 [51] 2.96 µM | GI50 [52] 1.75 µM | GI50 [53] 1.32 µM | GI50 [54] 1.4 µM | GI50 [55] 3.3 µM | GI50 [56] 0.944 µM | GI50 [57] 2.2 µM | GI50 [58] 1.69 µM
15.5 µM: TGI [33]
8.43 µM: TGI [26]
13.3 µM: TGI [51]
7.94 µM: TGI [4]
8.76 µM: TGI [11]
5.05 µM: TGI [27]
25.6 µM: TGI [37]
8.39 µM: TGI [13]
7.46 µM: TGI [29]
7.85 µM: TGI [49]
9.97 µM: TGI [8]
8.33 µM: TGI [28]
6.66 µM: TGI [30]
6.87 µM: TGI [16]
4.15 µM: TGI [5]
17.2 µM: TGI [55]
6.4 µM: TGI [32]
6.51 µM: TGI [38]
7.2 µM: TGI [17] | TGI [46]
3.82 µM: TGI [53]
8.22 µM: TGI [41]
12.2 µM: TGI [42]
10 µM: TGI [12] | TGI [15]
13 µM: TGI [47]
14.1 µM: TGI [36]
8.54 µM: TGI [9]
11 µM: TGI [40]
10.9 µM: TGI [56]
4.76 µM: TGI [14]
4.8 µM: TGI [10]
3.47 µM: TGI [54]
7.04 µM: TGI [43]
3.64 µM: TGI [2] | TGI [20]
12.4 µM: TGI [18]
13.6 µM: TGI [44]
19.2 µM: TGI [31]
12.1 µM: TGI [24] | TGI [45]
11.3 µM: TGI [3] | TGI [35]

Nc1nc(Br)nc2c1ncn2C1CC(O)C(CO)O1 (centres undefined)
inactive: GI50 [1] > 71.2 µM | GI50 [2] 29.3 µM | GI50 [3] > 100 µM | GI50 [4] 3.7 µM | GI50 [5] 0.698 µM | GI50 [6] > 63.9 µM | GI50 [7] > 24 µM | GI50 [8] > 20.1 µM | GI50 [9] 0.744 µM | GI50 [10] 21 µM | GI50 [11] 4.55 µM | GI50 [12] 11.6 µM | GI50 [13] > 100 µM | GI50 [14] 1.1 µM | GI50 [16] 5.34 µM | GI50 [17] 18.4 µM | GI50 [18] > 100 µM | GI50 [19] > 100 µM | GI50 [20] 32.8 µM | GI50 [21] > 100 µM | GI50 [22] > 100 µM | GI50 [23] 2.79 µM | GI50 [25] 2.88 µM | GI50 [26] 44.3 µM | GI50 [27] 1.3 µM | GI50 [28] > 100 µM | GI50 [29] 2.4 µM | GI50 [30] 1.26 µM | GI50 [32] > 100 µM | GI50 [33] > 100 µM | GI50 [35] 27.4 µM | GI50 [36] > 60.7 µM | GI50 [38] 61 µM | GI50 [39] > 93.3 µM | GI50 [40] 90.8 µM | GI50 [41] 27.3 µM | GI50 [42] 3.52 µM | GI50 [43] 25.2 µM | GI50 [44] 11.4 µM | GI50 [45] 34.2 µM | GI50 [46] 3.13 µM | GI50 [47] 99.8 µM | GI50 [48] 1.08 µM | GI50 [49] 47.7 µM | GI50 [50] > 100 µM | GI50 [51] 4.68 µM | GI50 [53] 13.7 µM | GI50 [54] 29.8 µM | GI50 [56] 2.76 µM | GI50 [57] > 25 µM | GI50 [58] 16.5 µM
8.56 µM: TGI [14]
active: GI50 [15] 0.0835 µM | GI50 [24] 0.18 µM | GI50 [31] 0.204 µM | GI50 [37] 0.408 µM | GI50 [52] 0.384 µM
> 56.9 µM: TGI [55]
> 22.4 µM: TGI [46]
> 29.9 µM: TGI [25]
> 76.4 µM: TGI [17]
> 100 µM: TGI [1] | TGI [2] | TGI [3] | TGI [4] | TGI [5] | TGI [6] | TGI [7] | TGI [8] | TGI [9] | TGI [11] | TGI [12] | TGI [13] | TGI [16] | TGI [18] | TGI [19] | TGI [20] | TGI [21] | TGI [22] | TGI [23] | TGI [24] | TGI [26] | TGI [27] | TGI [28] | TGI [29] | TGI [30] | TGI [31] | TGI [32] | TGI [33] | TGI [35] | TGI [36] | TGI [37] | TGI [38] | TGI [39] | TGI [40] | TGI [41] | TGI [42] | TGI [43] | TGI [44] | TGI [45] | TGI [47] | TGI [48] | TGI [49] | TGI [50] | TGI [51] | TGI [52] | TGI [53] | TGI [54] | TGI [56] | TGI [57] | TGI [58]
99.4 µM: TGI [10]
> 69.4 µM: TGI [34]
